Reference: ChEMBL document CHEMBL5338716, “Synthesis and anti-trypanosomal evaluation of novel N-branched acyclic nucleoside phosphonates bearing 7-aryl-7-deazapurine nucleobase” (Eur J Med Chem, 2022)

Legend:
[1] = Cytotoxicity against human HeLa S3 cells assessed as cell growth inhibition; type: toxicity, cell-based
[2] = Cytotoxicity against human HepG2 cells assessed as cell growth inhibition; type: toxicity, cell-based
[3] = Cytotoxicity against human CCRF-CEM cells assessed as cell growth inhibition; type: toxicity, cell-based
[4] = Cytotoxicity against human HL-60 cells assessed as cell growth inhibition; type: toxicity, cell-based
[5] = Selectivity index, ratio of IC50 for human NHDF cells to EC50 for Trypanosoma brucei brucei; type: functional
[6] = tested on: Trypanosoma brucei brucei; test: Antitrypanosomal activity against Trypanosoma brucei brucei assessed as reduction in parasite growth by cell-based assay; type: functional, organism-based
[7] = Cytotoxicity against human NHDF cells assessed as cell growth inhibition; type: toxicity, cell-based
[8] = Binding affinity to Trypanosoma brucei […] assessed as inhibition constant
[9] = Selectivity index, ratio of EC50 for human MRC5 cells to EC50 for Trypanosoma brucei brucei; type: functional

SMILES | EC50 [6] | Ki [8] | IC50 [1] | IC50 [2] | IC50 [3] | IC50 [4] | Selectivity Index [5] | IC50 [7] | Ratio EC50 [9]
N#CCCN(CCn1cc(-c2ccccc2)c2c(N)ncnc21)CCP(=O)(O)O | – | 1.73 µM | – | – | – | – | – | – | –
COc1ccc(-c2cn(CCN(CCC#N)CCP(=O)(O)O)c3ncnc(N)c23)cc1 | – | 2.2 µM | – | – | – | – | – | – | –
N#CCN(CCn1cc(-c2ccccc2)c2c(N)ncnc21)CCP(=O)(O)O | – | 9.5 µM | – | – | – | – | – | – | –
Nc1ncnc2c1c(-c1ccccc1)cn2CCN(CCP(=O)(O)O)CCP(=O)(O)O | – | 10.7 µM | – | – | – | – | – | – | –
COc1ccc(-c2cn(CCN(CC#N)CCP(=O)(O)O)c3ncnc(N)c23)cc1 | – | 10.9 µM | – | – | – | – | – | – | –
Nc1ncnc2c1c(-c1ccccc1)cn2CCN(CCO)CCP(=O)(O)O | – | 14.1 µM | – | – | – | – | – | – | –
COc1ccc(-c2cn(CCN(CCO)CCP(=O)(O)O)c3ncnc(N)c23)cc1 | – | 2.25 µM | – | – | – | – | – | – | –
COc1ccc(-c2cn(CCN(CCP(=O)(O)O)CCP(=O)(O)O)c3ncnc(N)c23)cc1 | – | 3.97 µM | – | – | – | – | – | – | –
Nc1ncnc2c1ccn2[C@@H]1O[C@H](CO)[C@@H](O)[C@H]1O [TUBERCIDIN] | 0.16 µM | ~330 µM | 0.1 µM | 0.05 µM | 0.11 µM | 0.14 µM | 0.4 | 0.07 µM | 4

Now from value to molecule, other results behind:

EC50 [6] | Ki [8] | SMILES | IC50 [1] | IC50 [2] | IC50 [3] | IC50 [4] | Selectivity Index [5] | IC50 [7] | Ratio EC50 [9]
2.24 µM | – | CCOC(=O)[C@H](Cc1ccccc1)NP(=O)(CCN(CC#N)CCn1cc(-c2ccc(OC)cc2)c2c(N)ncnc21)N[C@@H](Cc1ccccc1)C(=O)OCC | > 20 µM | > 20 µM | 4.2 µM | 6.7 µM | 3.5 | 7.9 µM | –
3.47 µM | – | CCOC(=O)[C@H](Cc1ccccc1)NP(=O)(CCN(CCO)CCn1cc(-c2ccc(OC)cc2)c2c(N)ncnc21)N[C@@H](Cc1ccccc1)C(=O)OCC | > 20 µM | > 20 µM | 6.2 µM | > 20 µM | 3.8 | 13.2 µM | –
0.58 µM | – | CCOC(=O)[C@H](Cc1ccccc1)NP(=O)(CCN(CCn1cc(-c2ccc(OC)cc2)c2c(N)ncnc21)CCP(=O)(N[C@@H](Cc1ccccc1)C(=O)OCC)N[C@@H](Cc1ccccc1)C(=O)OCC)N[C@@H](Cc1ccccc1)C(=O)OCC | 5.4 µM | 6.6 µM | 4 µM | 4.6 µM | 16.4 | 9.5 µM | –
1.61 µM | – | CCOC(=O)[C@H](Cc1ccccc1)NP(=O)(CCN(CC#N)CCn1cc(-c2ccccc2)c2c(N)ncnc21)N[C@@H](Cc1ccccc1)C(=O)OCC | 11 µM | > 20 µM | 5.9 µM | 8.7 µM | 6.5 | 10.4 µM | –
6.81 µM | – | CCOC(=O)[C@H](Cc1ccccc1)NP(=O)(CCN(CCC#N)CCn1cc(-c2ccc(OC)cc2)c2c(N)ncnc21)N[C@@H](Cc1ccccc1)C(=O)OCC | > 20 µM | > 20 µM | > 20 µM | > 20 µM | 2.4 | 16.4 µM | –
4.19 µM | – | CCOC(=O)[C@H](Cc1ccccc1)NP(=O)(CCN(CCC#N)CCn1cc(-c2ccccc2)c2c(N)ncnc21)N[C@@H](Cc1ccccc1)C(=O)OCC | > 20 µM | 14.1 µM | 5.6 µM | 8.6 µM | >4.8 | > 20 µM | –
1.21 µM | – | CCOC(=O)[C@H](Cc1ccccc1)NP(=O)(CCN(CCn1cc(-c2ccccc2)c2c(N)ncnc21)CCP(=O)(N[C@@H](Cc1ccccc1)C(=O)OCC)N[C@@H](Cc1ccccc1)C(=O)OCC)N[C@@H](Cc1ccccc1)C(=O)OCC | 4.9 µM | 6.3 µM | 3.8 µM | 4.2 µM | 7.4 | 8.9 µM | –
1.9 µM | – | CCOC(=O)[C@H](Cc1ccccc1)NP(=O)(CCN(CCO)CCn1cc(-c2ccccc2)c2c(N)ncnc21)N[C@@H](Cc1ccccc1)C(=O)OCC | > 20 µM | 14.7 µM | 6.7 µM | > 20 µM | 10 | 18.9 µM | –
